Test results from patent publication US11464773B2, “Nutlin-3a for treatment of proliferative vitreoretinopathy” (The Schepens Eye Research Institute, Inc., priority 2012, dated 2022).
Entries after “also recorded” stand apart in the source; their conditions may differ.

Experiments:
p53 [1] = test: p53 immunohistochemistry of epiretinal membranes from PVR rabbits; type: in vivo, rabbit; conditions: day 28, immunohistochemistry
Experimental: (§1) FIGS. 2A-2B include a dot plot and a series of photomicrographs showing that Nutlin -3a prevented retinal detachment and elevated p53 in epiretinal membranes. FIG. 2A is a dot plot illustrating the impact of Nutlin-3a on experimental PVR. RCFs were used to induce PVR as described below. The indicated rabbits received no additional injections (none) or 0.1 cc injections of either vehicle, or Nutlin-3a (20 μM) on day 0, 2 and 4. The data were subjected to an unpaired t test or one way Analysis of Variance (ANOVA) test; “*” denoted a statistically significant difference. FIG. 2B is a series of photographs showing that Nutlin-3a enhanced expression of p53 in epiretinal membranes. At the end of the experiment (day 28), the eyes were enucleated, and paraffin sections of whole eyes were subjected to p53 immunohistochemistry. The arrows point to the epiretinal membrane (the arrowheads denote the retina and the brown color indicates p53). The left and right panels are from a Nutlin-3a injected animal, whereas the middle panel is from a rabbit treated with vehicle. The left and middle panels were stained with the p53 antibody, whereas the right panel was stained with non-immune IgG. The scale bar is 50 μm.
Rabbit eyeballs were fixed in 10% formalin for 48 hr and embedded in paraffin after dehydration. […]

[2] = test system: primary rabbit conjunctival fibroblasts (RCFs); test: Maximum tolerated dose in cultured RCFs; type: cell-based; conditions: RCFs in DMEM+5% FBS, medium replaced every 24 hours, day 3
Experimental: FIGS. 8A-8B include a series of photographs showing the minimum effective dose and maximum tolerated dose of Nutlin-3a. FIG. 8A is a series of photomicrographs of western blots showing RCFs pretreated with the indicated concentrations of Nutlin-3a for 30 min, and then exposed to RV (diluted 1:3 in DMEM) for 2 hours. Cells were lysed and resulting lysates were subjected to western blot analysis using the indicated antibodies. The data shown are representative of three independent experiments. FIG. 8B is a series of photographs showing RCFs grown to near confluence in DMEM+10% FBS, the medium was replaced with DMEM+5% FBS+the indicated concentration of Nutlin-3a. The medium was replaced every 24 hours, and the photographs were taken on day 3. The data shown are representative of two independent experiments. The scale bar is 50 μm.

PDGFRα = test: Western blot: RV-induced phosphorylation of PDGFRα in RCFs; type: cell-based, rabbit; conditions: Nutlin-3a 10 μM, RV 2 hr
Experimental: (§2) FIG. 1A is a photograph of a western blot showing the impact of Nutlin-3a on RV-mediated signaling events. Primary rabbit conjunctival fibroblasts (RCFs) were pre-treated with either Nutlin-3a (10 μM), or vehicle for 30 min and then exposed to either RV (diluted 1:3 in Dulbecco's Modified Eagle Medium (DMEM)), or DMEM for 2 hr. The resulting cell lysates were subjected to western blot analysis using the indicated antibodies. The numbers are a ratio of p-PDGFRα/PDGFRα, p-Akt/Akt or p53/RasGAP (Ras GTPase) activating protein. […] FIG. 1B is a bar chart showing the impact of Nutlin-3a on RV-mediated contraction. RCFs were subjected to the collagen contraction assay as described above. Nutlin-3a (10 μM) or vehicle was included as indicated. The data were subjected to a paired t test; “*” denoted a statistically significant difference.
(§3) Cells were grown to 90% confluence in serum-containing medium, and then incubated for 24 hr in medium without serum. Cells were stimulated (as detailed for each experiment), washed twice with ice-cold phosphate buffered saline (PBS), and lysed in extraction buffer (10 mM Tris-HCl, pH 7.4, 5 mM EDTA, 50 mM NaCl, 50 mM NaF, 1% Triton X-100, 20 μg/ml aprotinin, 2 mM Na3VO4, 1 mM phenylmethylsulfonyl fluoride). […] Signal intensity was determined by densitometry and analyzed with the Quantity One (Bio-Rad) software.

[3] = test system: primary rabbit conjunctival fibroblasts (RCFs); test: Collagen I contraction assay, RV-induced, RCFs; type: cell-based; conditions: Nutlin-3a 10 μM, gel measured on day 3
Experimental: as §2
Cells were trypsinized, washed and resuspended in 1.5 mg/ml of neutralized collagen I (INAMED, Fremont, Calif.) (pH 7.2) at a density of 1×10^6 cells/ml for RPEM or 5×10^4 cells/ml for RCFs. The mixture was aliquoted into wells of a 24-well plate that had been preincubated overnight with 5 mg/ml bovine serum albumin in PBS. […] The media were replaced every day, and the gel diameter was measured on day 3. The gel area was calculated using the formula πr2, where r is the radius of the gel.

Akt = test: Western blot: RV-induced activation of Akt in RCFs; type: cell-based, rabbit; conditions: Nutlin-3a 10 μM, RV 2 hr
Experimental: as §2, §3

[4] = test system: upstream signaling events; test: Western blot: HV-mediated upstream signaling events in RPE cells from a human PVR membrane; type: cell-based; conditions: RPE cells from human epiretinal membrane, HV diluted 1:3
Description: (§4) FIGS. 7A-7B include a photograph of a western blot and a bar chart showing p53 attenuated human vitreous humor (HV)-driven collagen gel contraction. FIG. 7A is a photograph of a western blot showing the impact of Nutlin-3a on HV-mediated signaling events. Methods were the same as FIG. 3A, but the RPE cells from a human patient epiretinal membrane were used in place of RCF, and HV (a pool of vitreous from 5 PVR patients diluted 1:3 in DMEM) was used in place of RV. The data presented are representative of three independent experiments. FIG. 7B is a bar chart showing the impact of Nutlin-3a on HV-mediated contraction. This experiments were the same as FIG. 3B with the modification noted in FIG. 7A. The data were subjected to a paired t test. “*” denoted a statistically significant difference. The data shown are representative of three independent experiments.
(§5) RPEM cells are RPE cells derived from a human epiretinal membrane, as previously described (Wong C A et al., 2002 Can J Ophthalmol, 37:211-220). Primary rabbit conjunctival fibroblasts (RCFs) were obtained and cultured as described previously (Ikuno Y et al., 2002 Invest Ophthalmol Vis Sci, 43:2406-2411). […]
(§6) Cells were grown to 90% confluence in serum-containing medium, and then incubated for 24 hr in medium without serum. […] Signal intensity was determined by densitometry and analyzed with the Quantity One (Bio-Rad) software.

[5] = test system: RPE cells isolated from a human PVR membrane; test: Collagen contraction assay, HV-stimulated, RPE cells from a human PVR membrane; type: cell-based; conditions: RPE cells from human epiretinal membrane, HV diluted 1:3
Description: as §4
RPEM cells are RPE cells derived from a human epiretinal membrane, as previously described (Wong C A et al., 2002 Can J Ophthalmol, 37:211-220). […]
(§7) Cells were trypsinized, washed and resuspended in 1.5 mg/ml of neutralized collagen I (INAMED, Fremont, Calif.) (pH 7.2) at a density of 1×10^6 cells/ml for RPEM or 5×10^4 cells/ml for RCFs. […] The media were replaced every day, and the gel diameter was measured on day 3. The gel area was calculated using the formula πr2, where r is the radius of the gel.

p53 [6] = test: Western blot: RV-mediated decline in the level of p53 in RCFs; type: cell-based, rabbit
Experimental: as §2
FIGS. 8A-8B include a series of photographs showing the minimum effective dose and maximum tolerated dose of Nutlin-3a. FIG. 8A is a series of photomicrographs of western blots showing RCFs pretreated with the indicated concentrations of Nutlin-3a for 30 min, and then exposed to RV (diluted 1:3 in DMEM) for 2 hours. […]
as §6

p53 [7] = test: Western blot: HV-mediated fall in the level of p53 in RPE cells from a human PVR membrane; type: cell-based; conditions: RPE cells from human epiretinal membrane, HV pool of 5 PVR patients diluted 1:3
Description: as §4, §5, §6

[8] = test system: proliferative vitreoretinopathy (PVR); test: Rabbit model for PVR (Fastenberg scale); type: in vivo, Dutch Belted rabbits
Experimental: as §1
PVR was induced in Dutch Belted rabbits, purchased from Covance (Denver, Pa.), as previously described (Lei H et al., 2009 Invest Ophthalmol Vis Sci, 50:3394-3403). Briefly, a gas vitrectomy was performed by injecting 0.1 ml of perfluoropropane (C3F8) (Alcon, Fort Worth, Tex.) into vitreous. One week later, the right eye of rabbits was injected in one of two ways. For the experiment injecting RCFs expressing shRNAs, 0.1 ml of DMEM containing 1×10^5 RCFs that were modified as outlined in the legend were injected along with 0.1 ml rabbit platelet-rich plasma. For the Nutlin-3a experiment, all rabbits were injected with 0.1 ml of DMEM containing 1×10^5 unmodified RCFs, 0.1 ml rabbit platelet rich plasma and either not injected a third time, or injected with vehicle, or 0.1 ml of 200 μM Nutlin-3a. The vehicle or Nutlin-3a injection was repeated on day 3 and 5. The retinal status was evaluated with an indirect ophthalmoscope fitted with a +30 D fundus lens on day 1, 3, 5, 7, 14, 21 and 28. PVR was graded according to the Fastenberg scale of classification 41: stage 0, no disease; stage 1, epiretinal membrane; stage 2, vitreoretinal traction without retinal detachment; stage 3, localized retinal detachment (1-2 quadrants); stage 4, extensive retinal detachment (2-4 quadrants without complete detachment); stage 5, complete retinal detachment. On day 28, animals were sacrificed, and eyes were enucleated and frozen at −80° C.

retina = test: Retinal toxicity after intravitreal injections in rabbits; type: in vivo; conditions: multiple intravitreal injection of up to 20 micromolar, day 0, 2 and 4; fundus exams to day 14, histology
Experimental: FIGS. 9A-9B include a series of photographs showing epiretinal membranes from rabbits subjected to the PVR protocol. Rabbits that underwent a gas vitrectomy were intravitreally injected with the indicated concentration of Nutlin-3a on day 0, 2 and 4. The rabbits underwent a fundus examination on day 1, 3, 5, 7 and 14. Following the last fundus exam rabbits were euthanized, eyes were enucleated and fixed in 10% formalin. Sections were prepared, stained with hematoxylin and eosin, and then photographed. Representative photos of a Nutlin-3a (FIG. 9A) and vehicle (FIG. 9B) injected eye are presented. Arrowheads and arrows point to the retina and epiretinal membrane, respectively; scale bar: 50 μm. The lack of the retinal pigment epithelial cell layer is an artifact related to processing of the tissue.

Fβ cells = test: Collagen contraction assay, RV-induced, Fβ cells; type: cell-based, mouse; conditions: Imatinib 10 μM, day 3
Description: (§8) FIGS. 10A-10B include a series of bar graphs showing that inhibiting PDGFRα kinase activity blocked RV-induced collagen contraction. The indicated RCFs (50,000 cells/ml) (FIG. 10A) or F cells (1 million cells/ml) (FIG. 10B) were subjected to a collagen contraction assays as described below. […] The panels below the bar graphs show photographs of representative gels; the data presented are representative of 3 independent experiments. The data were subjected to a paired t test; “*” denoted a statistically significant difference.
(§9) RPEM cells are RPE cells derived from a human epiretinal membrane, as previously described (Wong C A et al., 2002 Can J Ophthalmol, 37:211-220). Primary rabbit conjunctival fibroblasts (RCFs) were obtained and cultured as described previously (Ikuno Y et al., 2002 Invest Ophthalmol Vis Sci, 43:2406-2411). RCFs that stably expressed the shRNA targeting vector specific for GFP, PDGFRα, p53 or PDGFRα and p53 were designated sh GFP, sh PDGFRα sh p53 and sh PDGFRα/p53, respectively.
as §7

Fα cells = test: Collagen contraction assay, RV-induced, Fα cells; type: cell-based, mouse; conditions: Imatinib 10 μM, day 3
Description: as §8, §9, §7

sh GFP cells = test: Collagen contraction assay, RV-induced, sh GFP RCFs; type: cell-based, rabbit; conditions: Imatinib 10 μM, day 3
Description: as §8
Cells were trypsinized, washed and resuspended in 1.5 mg/ml of neutralized collagen I (INAMED, Fremont, Calif.) (pH 7.2) at a density of 1×10^6 cells/ml for RPEM or 5×10^4 cells/ml for RCFs. The mixture was aliquoted into wells of a 24-well plate that had been preincubated overnight with 5 mg/ml bovine serum albumin in PBS. The collagen solution was solidified by incubating at 37° C. for 90 min, and overlaid with medium containing the desired agents. The media were replaced every day, and the gel diameter was measured on day 3. The gel area was calculated using the formula πr2, where r is the radius of the gel.

Row | SMILES | p53 level in epiretinal membranes versus vehicle-injected controls (p53 [1]) | maximum tolerated dose [2] [µM] | RV-induced phosphorylation of PDGFRα (PDGFRα) | RV-mediated contraction of collagen gels [3] | RV-induced activation of Akt (Akt) | upstream signaling events in HV-treated cells [4] | HV-stimulated contraction of RPE-containing collagen gels [5] | RV-mediated decline in the level of p53 (p53 [6]; RCFs pre-treated with Nutlin-3a 10 μM 30 min, then RV (1:3 in DMEM) 2 hr) | minimum dose to prevent the RV-induced reduction of p53 (p53 [6]; RCFs pretreated 30 min, RV (1:3) 2 hours) [µM] | HV-induced fall in the level of p53 (p53 [7]) | animals that succumbed to even partial retinal detachment (stage 3 or 4) ([8]; by day 28, intravitreal Nutlin-3a injections) [%] | formation of epiretinal membranes (stage 1 and 2) ([8]; intravitreal Nutlin-3a injections, to day 28) | retinal detachment ([8]; series of intravitreal injections) | rabbits that developed vitreal traction (stage 2) ([8]; series of intravitreal injections, end of experiment (day 28)) [%] | overt signs of retinal toxicity (retina) | RV-induced contraction in cells expressing PDGFRβ (Fβ) (Fβ cells) | RV-stimulated contraction in cells expressing PDGFRα (Fα) (Fα cells) | RV-induced contraction in sh GFP cells (sh GFP cells)
1 | COc1ccc(C2=N[C@@H](c3ccc(Cl)cc3)[C@@H](c3ccc(Cl)cc3)N2C(=O)N2CCNC(=O)C2)c(OC(C)C)c1 (single isomer, unassigned) [Nutlin-3a] | higher | 30 | no effect | effectively blocked | no effect | without impacting upstream signaling events | inhibited | effectively blocked | 2 | prevented the precipitous fall | 0 | slowed formation of membranes; also recorded: did form membranes | completely prevented | 50 | did not produce overt signs of retinal toxicity | – | – | –
2 | Cc1ccc(NC(=O)c2ccc(CN3CCN(C)CC3)cc2)cc1Nc1nccc(-c2cccnc2)n1 [Imatinib] | – | – | – | – | – | – | – | – | – | – | – | – | – | – | – | did not improve RV-induced contraction or generate sensitivity to Imatinib | erased | completely blocked
